Consider one molecule from patent US7915012B2, “Methods for screening for inhibitors of TRPV2 activation” (Korea University Industry and Academic Collaboration …, priority 2008, dated 2011).

Structures are written as SMILES.

Assay [1] concerns trigeminal neurons. The assay can be described thus: Whole-cell voltage-clamp recording in trigeminal neurons. The following applies: 100 μM probenecid. It counts as cell-based, ICR mice.
For assay [2], the system named is trigeminal neurons. The assay can be described thus: Calcium imaging of cultured trigeminal neurons. Format: cell-based, ICR mice. The settings on record: 100 μM probenecid. On the procedure:
Trigeminal ganglia were dissected out of decapitated adult ICR mice in cold PBS and treated with 1.5 mg/ml of collagenase/dispase (Roche Diagnostics, USA) at 37° for 45 min, and then treated with 0.25% trypsin (Invitrogen, USA) for 15 min. The trigeminal neurons prepared thereby were then plated onto poly-L-lysinecoated coverslips in DMEM/F12 containing 10% FBS, 1% penicillin/streptomycin and 5 ng/ml of 2.5S NGF (Invitrogen, USA), followed by culture in a CO2 incubator for 48-72 hours.
Calcium imaging was performed with a confocal microscope (LSM5 Pascal, Carl Zeiss, Germany), and time-lapse images (excitation 488 nm/emission 514 nm) were collected every 3 seconds using Carl Zeiss ratio tool software (Carl Zeiss, Germany).
The trigeminal neurons prepared by the same manner as described in Example 2 were delayed-treated with 100 μM probenecid or 4 kinds of TRP activators: TRPM8 activator menthol 400 μM, TRPA1 activator cinnamaldehyde (MP Biomedicals, USA) 300 μM, TRPV1 activator capsaicin (Sigma-Aldrich, USA) 2 μM and TRPV1-3 activator 2-APB 300 μM.
The trigeminal neurons prepared by the same manner as described in Example 2 were treated with 300 μM 2-APB+100 μM probenecid, 300 μM 2-APB+2 μM capsaicin, 300 μM 2-APB+300 μM cinnamaldehyde+2 μM capsaicin, 300 μM 2-APB +2 μM capsaicin +100 μM probenecid, 300 μM 2-APB +400 μM menthol and 300 μM 2-APB, respectively.

In the next assay the target is T1, rTRPV2 (Rattus norvegicus, UniProt Q9WUD2, A713V/L151P/T158I).
T1 construct: expressed in transfected cells; host or cells: HEK293T (ATCC CRL-11268)
T1 sequence (Q9WUD2 1-761 L151P/T158I/A713V): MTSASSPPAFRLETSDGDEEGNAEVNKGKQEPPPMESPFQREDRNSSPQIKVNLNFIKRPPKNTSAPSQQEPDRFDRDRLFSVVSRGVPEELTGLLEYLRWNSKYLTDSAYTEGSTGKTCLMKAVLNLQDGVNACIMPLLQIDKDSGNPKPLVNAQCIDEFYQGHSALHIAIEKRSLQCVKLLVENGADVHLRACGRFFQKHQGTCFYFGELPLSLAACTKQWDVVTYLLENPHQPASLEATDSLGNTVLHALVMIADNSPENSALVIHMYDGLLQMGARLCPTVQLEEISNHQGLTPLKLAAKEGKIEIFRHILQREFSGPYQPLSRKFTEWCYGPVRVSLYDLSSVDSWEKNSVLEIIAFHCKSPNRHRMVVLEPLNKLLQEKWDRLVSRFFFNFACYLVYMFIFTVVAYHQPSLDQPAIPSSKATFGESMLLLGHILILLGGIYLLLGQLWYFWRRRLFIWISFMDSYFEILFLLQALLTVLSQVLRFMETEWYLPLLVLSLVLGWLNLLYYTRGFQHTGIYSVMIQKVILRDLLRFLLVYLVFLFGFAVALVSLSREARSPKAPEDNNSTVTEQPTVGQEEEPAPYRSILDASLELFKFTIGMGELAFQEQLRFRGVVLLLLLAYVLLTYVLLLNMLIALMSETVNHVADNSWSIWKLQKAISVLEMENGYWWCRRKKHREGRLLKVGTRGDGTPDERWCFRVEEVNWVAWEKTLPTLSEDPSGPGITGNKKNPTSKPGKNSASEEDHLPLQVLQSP
The assay can be described thus: Fluo-3 calcium imaging in TRPV2 transfected HEK293T cell line. Format: cell-based. How it is done: HEK293T cell line (ATCC CRL-1 1268) was transiently transfected with plasmid DNA containing polynucleotide encoding […] (SEQ. ID. NO: 1), rTRPV2 (SEQ. ID. NO: 2), mTRPV3 (SEQ. ID. NO: 3), rTRPV4 (SEQ. ID. NO: 4), mTRPM8 (SEQ. ID. NO: 5) or mTRPA1 (SEQ. ID. NO: 6).
Particularly, the HEK293T cell line was transiently transfected with individual TRP channel plasmid (pcDNA3.1 containing polynucleotide encoding rTRPV1, rTRPV2, mTRPV3, rTRPV4, mTRPM8 or mTRPA1), and 600 ng/well of pCDNA3 (Invitrogen Corp., USA; containing green fluorescent protein (GFP) cDNA) using Fugene6 (Roche Diagnostics, USA) according to manufacturer's instruction. The transformed cells were cultured in DMEM/F12 containing 10% FBS and 1% penicillin/streptomycin in a CO2 incubator for 24 hours. The cells were replated onto poly-L-lysine-coated glass coverslips, followed by further culture for 10-24 hours.
The TRPV2 transfected cell line prepared in Example 1 was treated with 100 μM probenecid and 300 μM 2-APB.
The TRPV2 transfected cell line prepared in Example 1 was treated with probenecid at different concentrations from 0.1 to 1,000 μM.
Particularly, the transfected cell line of Example <3-1> and Example <3-2> was loaded with Fluo-3AM (5 μM; Sigma Aldrich, USA) in the bath solution (140 mM NaCl, 5 mM KCl, 2 mM CaCl2, 1 mM MgCl2, 10 mM HEPES; adjusted to pH 7.4 with NaOH) containing 0.02% pluronic acid (Invitrogen, USA) at 37° C. for 1 hour. Calcium imaging was performed with a confocal microscope (LSM5 Pascal, Carl Zeiss, Germany), and time-lapse images (excitation 488 nm/emission 514 nm) were collected every 3 seconds using Carl Zeiss ratio tool software (Carl Zeiss, Germany).
The TRPA1, TRPV1, TRPV2, TRPV3, TRPV4 and TRPM8 transfected cell lines prepared by the method of Example 1 and the non-transfected HEK cell line (control group) were treated with 100 μM probenecid. Calcium imaging was performed with the transfected cell lines treated as the above by the same manner as described in Example <3-3>.

Another assay can be described thus: Oral aversion test. It counts as in vivo, ICR mice. How it is done:
Oral aversion test was confirmed according to the methods of Caterina M J, et al. (Science 288:306-313, 2000) and Kwan K Y, et al. (Neuron 50: 277-289, 2006). Particularly, adult ICR mice randomly selected and raised were allowed to drink water containing 0.125% saccharin (Sigma Aldrich, USA) only for three hours a day. Water and feed were provided for 4 days. Water and feed consumptions were measured everyday. On day 4, water containing 20 mM probenecid was provided for 3 hours. Statistical data were analyzed by two-tailed, unpaired Student's-t-test and the results were presented by mean ±S.E.M.

One may read the Kd as a measure of binding affinity in units of concentration.

Turning to `CCCN(CCC)S(=O)(=O)c1ccc(C(=O)O)cc1` [probenecid], in the assay on trigeminal neurons [1], the “probenecid induced currents in 2-APB-sensitive trigeminal neurons” value is listed as “exhibited outward rectifying”. Moreover, the “calcium influx in a trigeminal neuron group” value in the assay with trigeminal neurons [2] is given as “calcium influx induced”. Moreover, in the assay with trigeminal neurons [2] (2 μM capsaicin), the “neurons sensitive to probenecid among neurons responding to capsaicin” value is 5 out of 111 and the “share of capsaicin-sensitive neurons that responded to probenecid” value is recorded as 3.5%. Further, the “response of 2-APB reactive neurons to probenecid” value with trigeminal neurons [2] (2-APB 300 μM) is given as “responded”. Also, the “response of major capsaicin-sensitive and all capsaicin/cinnamaldehyde-sensitive neuron groups to probenecid” value with trigeminal neurons [2] (capsaicin 2 μM, cinnamaldehyde 300 μM) is recorded as “did not exhibit probenecid induced intracellular calcium influx”. Besides, in the assay with trigeminal neurons [2] (menthol 400 μM), the “response of menthol-reactive TRPM8 positive neurons to probenecid” value was “did not respond”. For the same molecule, the “TRPV2 activation (calcium imaging)” value on rTRPV2 (100 μM probenecid) was “activated”. In addition, at rTRPV2 (n=12-62 per experimental value), the “n (Hill plot of calcium influx responses)” value is reported as 2.8. For the same molecule, the Kd on rTRPV2 (n=12-62 per experimental value, read-out: Kd (Hill plot of calcium influx responses)) was found to be 31.9 µM. Further, the maximal effective dose entry at rTRPV2 (probenecid 0.1 to 1,000 μM, calcium influx) is “about 1 mM”. On rTRPV2 (probenecid 0.1 to 1,000 μM, calcium influx, read-out: EC50 (effective concentration 50%) on TRPV2), the EC50 came to 31.9 µM. In addition, in “Oral aversion test” (water containing 20 mM probenecid), the oral aversion result is on record as “did not induce oral aversion”. In addition, the “water and feed consumption, treated versus not treated group” value in the assay “Oral aversion test” (water containing 20 mM probenecid for 3 hours on day 4, n=5) is “no significant difference”.
